Drawing on US20240300957A1, “TETRAZOLE-SUBSTITUTED ETHYL-SULFONE / SULFOXIMINE-PYRIDINE DERIVATIVES” (Boehringer Ingelheim Vetmedica GmbH, priority 2023, published 2024), this text covers mortality and EC50 for 12 compounds.

Usually mortality stands for the share of the test organisms that died. What is called EC50 is the concentration at which the effect is half-maximal.

One assay has as its system Plutella xylostella. The assay can be described thus: Insecticidal test on Plutella xylostella (Chinese cabbage seedling dip). Type of assay: in vivo. Particulars: 144 h, 6 days after dip treatment, 25° C., read-out: activity level (corrected mortality rate). How it is done:
Example 14: Insecticidal Test on Plutella xylostella
The compounds of formula (I), (Ia) and (Ib) of the present invention or salts thereof are separately dispersed in water and diluted to 50 ppm. Ten adults of Plutella xylostella are released onto Chinese cabbage seedlings and allowed to lay eggs thereon. 2 days after the release of the adults, the seedling is dipped in the dispersion for about 30 seconds. After air dried, the seedling is kept in a room at 25° C. 6 days after the dip treatment, the numbers of the dead and alive insects are counted. The corrected mortality rate is calculated according to the following formula and the insecticidal activity was evaluated according to the following criteria.
[formula] • A: the corrected mortality rate is 100% • B: the corrected mortality rate is 90 to 99% • C: the corrected mortality rate is 80 to 89% • D: the corrected mortality rate is 50 to 79%

The subject of assay [1] is 3rd-instar nymphs of Laodelphax striatellus. Kind of assay: Insecticidal test on Laodelphax striatellus (rice seedling dip). Type of assay: in vivo. Particulars: 192 h, 8 days after inoculation, 25° C., read-out: activity level (corrected mortality rate).
The next assay has as its system adult C. felis fleas. Kind of assay: Ingestion activity against adult Ctenocephalides felis (artificial membrane feeding, bovine blood). The format is in vivo. Particulars: bovine blood via artificial membrane, motility 48 h post treatment, read-out: EC50 (ingestion activity, % motility reduction). How it is done:
Example 6: Screening Method to Test Ingestion Activity of Compounds of Formula (I), (Ia) or (Ib) Against Adult Ctenocephalides felis Compounds of formula (I), (Ia) and (Ib) dissolved in 100% DMSO are added to bovine blood and offered via an artificial membrane feeding system to adult C. felis fleas. The motility of fleas is then visually inspected 48 h post treatment. Efficacy is expressed in % motility reduction compared to controls containing blood treated with DMSO only. A dose response series is implemented to determine EC50 values.

For assay [2], the system named is adult R. sanguineus ticks. The assay can be described thus: Contact activity against adult Rhipicephalus sanguineus (coated vial). Type of assay: in vivo. Particulars: mortality at 48 hours post-treatment, 24° C., 95% relative humidity, read-out: EC50 (contact activity, percentage mortality). How it is done:
Screening Method to Test Contact Activity of Compounds of Formula (I), (Ia) or (Ib) Against Adult Rhipicephalus Sanguineus Compounds of formula (I), (Ia) and (Tb) formulated in 100% DMSO are diluted in a solution containing acetone and Triton X-100 (0.02%). The resulting formulation is used to coat the inner walls of glass scintillation vials and the filter paper covering the cap of the vial. Once dried, ten adult R. sanguineus ticks are added to the vials. The vials are incubated at 24° C., 95% relative humidity, and 12 hours of light/12 hours of dark until evaluation. Ticks are visually evaluated for mortality at 48 hours post-treatment. Compound efficacy at a given dose is expressed as percentage mortality. A dose response series is implemented to determine EC50 values.

Assay [3] relates to adult Ctenocephalides felis fleas. The assay can be described thus: Contact activity against adult Ctenocephalides felis (coated pipe cleaner in vial). The format is in vivo. The settings on record: adult C. felis, mortality at 72 hours post-treatment, 22° C., 80% relative humidity, read-out: EC50 (contact activity, percentage mortality). How it is done: Example 4: Screening Method to Test Contact Activity of Compounds of Formula (I), (Ia) or (Ib) Against Adult Ctenocephalides felis
Compounds of formula (I), (Ia) and (Ib) dissolved in 100% DMSO are diluted in acetone to a desired concentration. The resulting formulation is used to coat the fibers of a 0.5-inch-long piece of pipe cleaner placed in a glass scintillation vial. The vial is capped with a rubber gasket and filter paper insert. After the acetone has evaporated, ten adult Ctenocephalides felis fleas are added to each vial. The vials are then incubated at 22° C., 80% relative humidity, and 12 hours of light/12 hours of dark until a visual evaluation for mortality is performed at 72 hours post-treatment. Compound efficacy at a given dose is expressed as percentage mortality and adjusted to remove background mortality observed in control vials containing DMSO only. A dose response series of treated vials is implemented to determine EC50 values.

The subject of assay [4] is 2nd-instar larvae of Spodoptera litura. The assay can be described thus: whole plant or invertebrate. The settings on record: in Brassica oleracea, foliar, 192 h, read-out: activity level (corrected mortality rate).

A value given as a limit tells only on which side of the number the result lay.

Turning to `CCS(=O)(=O)c1cc(-c2nnnn2C2CC2)cnc1-c1nc2cc(C(F)(F)C(F)(F)F)nnc2n1C` [Compound 1, 6-[5-(1-cyclopropyltetrazol-5-yl)-3-ethylsulfonyl-2-pyridyl]-7-methyl-3-(1,1,2,2,2-pentafluoroethyl)imidazo[4,5-c]pyridazine], the mortality at 50 ppm (in the assay with Plutella xylostella; in assay [1]) was 100% in each case. Also, the EC50 with adult C. felis fleas is less than 10 µM; in assay [2] it was 10 to 100 µM.

With `CCS(=O)(=O)c1cc(-n2nnnc2C2CC2)cnc1-c1nc2cc(C(F)(F)C(F)(F)F)nnc2n1C` [Compound 2, 6-[5-(5-cyclopropyltetrazol-1-yl)-3-ethylsulfonyl-2-pyridyl]-7-methyl-3-(1,1,2,2,2-pentafluoroethyl)imidazo[4,5-c]pyridazine], in the assay on adult C. felis fleas, the EC50 lay in the range of 10 to 100 µM.

For `CCS(=O)(=O)c1cc(-c2nnnn2C)cnc1-c1nc2cc(C(F)(F)C(F)(F)F)nnc2n1C` [Compound 4], in assay [1], the mortality at 50 ppm was found to be 100%. The EC50 in the assay with adult C. felis fleas is less than 10 µM.

Take `CCn1nnnc1-c1cnc(-c2nc3cc(C(F)(F)C(F)(F)F)nnc3n2C)c(S(=O)(=O)CC)c1` [Compound 6]: the EC50 with adult C. felis fleas is less than 10 µM.

As for `CCS(=O)(=O)c1cc(-c2nnn(C)n2)cnc1-c1nc2cc(C(F)(F)C(F)(F)F)nnc2n1C` [Compound 7, 6-[3-ethylsulfonyl-5-(2-methyltetrazol-5-yl)-2-pyridyl]-7-methyl-3-(1,1,2,2,2-pentafluoroethyl)imidazo[4,5-c]pyridazine], the figures for the 50% effective concentration (EC50) (in the assay with adult C. felis fleas; in assay [2]; in assay [3]) were 10 to 100 µM, 10 to 100 µM and less than 10 µM, respectively.

With `CCS(=O)(=O)c1cc(-c2nnn(C)n2)cnc1-c1ncc(C(=O)NCC(F)(F)F)n1C` [Compound 8], the EC50 in the assay on adult C. felis fleas fell in the range of 10 to 100 µM.

For `CCS(=O)(=O)c1cc(-c2nnn(C)n2)cnc1-c1nc2cc(S(=O)(=O)C(F)(F)F)nnc2n1C` [Compound 9], the mortality at 50 ppm (in the assay on Plutella xylostella; in assay [1]; in assay [4]) was 100% in each case. Besides, the EC50 in the assay on adult C. felis fleas is less than 10 µM.

With `CCS(=O)(=O)c1cc(-c2nnn(C(C)C)n2)cnc1-c1nc2cc(C(F)(F)C(F)(F)F)nnc2n1C` [Compound 10], the mortality at 50 ppm (in the assay with Plutella xylostella; in assay [1]) was 100% each time. Further, the EC50 in assay [2] was less than 10 µM.

As to `CCS(=O)(=O)c1cc(-n2nnnc2C)cnc1-c1nc2cc(C(F)(F)C(F)(F)F)nnc2n1C` [Compound 12], the EC50 with adult C. felis fleas lay within 10 to 100 µM.

Regarding `CCS(=O)(=O)c1cc(-c2nnn(C)n2)cnc1-c1nc2cc(C(F)(F)C(F)(F)F)cnc2n1C` [Compound 14], the mortality at 50 ppm (in the assay on Plutella xylostella; in assay [4]) was 100% each time. The figures for the 50% effective concentration (EC50) (in the assay on adult C. felis fleas; in assay [2]; in assay [3]) were less than 10 µM, 10 to 100 µM and 10 to 100 µM, respectively.

Take `CCS(=O)(=O)c1cc(-c2nnnn2C)cnc1-c1nc2cc(C(F)(F)C(F)(F)F)cnc2n1C` [Compound 15]: the mortality at 50 ppm in the assay on Plutella xylostella stood at 100%. The half-maximal effective concentration (EC50) in the assay on adult C. felis fleas was less than 10 µM.

For the compound `CCS(=O)(=O)c1cc(-c2nnnn2-c2ccccc2)cnc1-c1nc2cc(C(F)(F)C(F)(F)F)nnc2n1C` [Compound 16], the mortality at 50 ppm in the assay with Plutella xylostella was determined as 100%.
